Data on ten compounds can be found in ChEMBL document CHEMBL1201862, “PubChem BioAssay data set” (2004).

Among the test systems are MOLT-4; SW-620; NCI-H226; SK-MEL-28; NCI-H23; A549; MDA-MB-231; A498; SNB-75; NCI-H522; UACC-62; T47D; RPMI-8226; OVCAR-4; NCI/ADR-RES; MDA-MB-435; HOP-62; LOX IMVI; UACC-257; OVCAR-8.
Assay in all cases: growth of human tumour cells (NCI), 48 h

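Step 1: Grow cells in 96-well plates. Step 2: Expose to compound for 48 hours at 5 concentrations. Step 3: Interpolate endpoints linearly; if unreached, use highest concentration. Here, GI50 denotes the concentration required for 50% inhibition of growth.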 The source made the active and inactive calls. No stated cut-off is given here; in the data, active = GI50 up to about 1.1 µM and inactive = higher.

Take `N/C(=N\n1c(=S)[nH]c2ccccc2c1=O)Nn1c(=S)[nH]c2ccccc2c1=O`: the GI50 with MOLT-4 was 11.4 µM (inactive); in the experiment on SW-620 it was 18.9 µM (inactive); with NCI-H226 it was 21.7 µM (inactive); in the experiment on SK-MEL-28, 28.2 µM (inactive); with NCI-H23 it was 23.1 µM (inactive); with A549, > 100 µM (inactive). The GI50 with MDA-MB-231 is 53.3 µM (inactive); in the experiment on A498, > 100 µM (inactive); with SNB-75, 25.1 µM (inactive); with NCI-H522, 13.3 µM (inactive); in the experiment on UACC-62 it was 75 µM (inactive); with T47D it was 23.4 µM (inactive). For the same compound, the GI50 with RPMI-8226 is 22.4 µM (inactive); with OVCAR-4, 49.9 µM (inactive); in the experiment on NCI/ADR-RES, 47.6 µM (inactive); in the experiment on MDA-MB-435 it was 36.9 µM (inactive); with HOP-62, 36.4 µM (inactive); with LOX IMVI, 18.8 µM (inactive). Further, the results for the GI50 with UACC-257 and with OVCAR-8 were > 100 µM (inactive) and 28.8 µM (inactive), respectively.

Regarding `CC(=O)Nc1ccccc1C=C1c2ccccc2-c2ccccc21`, the GI50 in the experiment on MOLT-4 is 77.1 µM (inactive); with SW-620 it was > 100 µM (inactive); with NCI-H226, 28 µM (inactive); in the experiment with SK-MEL-28 it was > 100 µM (inactive); with NCI-H23, 25.2 µM (inactive); in the experiment with A549, 24.1 µM (inactive). For the same compound, the GI50 is 17.7 µM (inactive) in the experiment with MDA-MB-231; 36.3 µM (inactive) with A498; 17.9 µM (inactive) in the experiment with SNB-75; 20.2 µM (inactive) in the experiment on NCI-H522; 41.7 µM (inactive) with UACC-62; 30.4 µM (inactive) in the experiment on T47D. For the same compound, the GI50 in the experiment with RPMI-8226 was 50.2 µM (inactive); in the experiment with OVCAR-4, 27.9 µM (inactive); in the experiment on NCI/ADR-RES it was 18.7 µM (inactive); in the experiment on MDA-MB-435, > 100 µM (inactive); in the experiment on HOP-62 it was 19.5 µM (inactive); in the experiment with LOX IMVI, > 100 µM (inactive). In addition, the GI50 with UACC-257 was 56.8 µM (inactive); with OVCAR-8, 21.7 µM (inactive).

For the compound `COC(=O)[C@@H]1C2OC(C)(C)OC2CN1C(=O)OCc1ccccc1` (stereo not given in full), the GI50 with MOLT-4, in the experiment on SW-620, with NCI-H226, in the experiment on SK-MEL-28, with NCI-H23 and in the experiment on A549 was > 100 µM (inactive) each time. Besides, the GI50 was > 100 µM (inactive) with MDA-MB-231; > 100 µM (inactive) in the experiment on A498; 4.58 µM (inactive) with SNB-75; > 100 µM (inactive) with NCI-H522; > 100 µM (inactive) in the experiment on UACC-62; > 100 µM (inactive) in the experiment with T47D. Further, the GI50 in the experiment with RPMI-8226, with OVCAR-4, with NCI/ADR-RES, with MDA-MB-435, with HOP-62 and in the experiment on LOX IMVI was > 100 µM (inactive) in each case. In addition, the GI50 with UACC-257 and with OVCAR-8 was > 100 µM (inactive) each time.

In the case of `CCOC(=O)c1ccc(/N=C/C=C(\Nc2ccc(C(=O)OCC)cc2)c2ccc3ccccc3c2)cc1`, the GI50 was 3.97 µM (inactive) with MOLT-4; 45.2 µM (inactive) in the experiment with SW-620; 34 µM (inactive) in the experiment with NCI-H226; 23.5 µM (inactive) with SK-MEL-28; 21 µM (inactive) in the experiment with NCI-H23; 34.5 µM (inactive) in the experiment on A549. Moreover, the GI50 in the experiment on MDA-MB-231 is 25.1 µM (inactive); with A498 it was 95.9 µM (inactive); in the experiment with SNB-75, 28 µM (inactive); in the experiment on NCI-H522 it was 27.5 µM (inactive); in the experiment on UACC-62, 14 µM (inactive); in the experiment on T47D it was 13.9 µM (inactive). Further, the GI50 in the experiment on RPMI-8226 is 18.7 µM (inactive); in the experiment with OVCAR-4, 26.4 µM (inactive); in the experiment with NCI/ADR-RES it was 21.5 µM (inactive); with MDA-MB-435, 16.2 µM (inactive); with HOP-62, 30.8 µM (inactive); in the experiment with LOX IMVI, 15.7 µM (inactive). The values for the GI50 in the experiment on UACC-257 and with OVCAR-8 were 31 µM (inactive) and 35.4 µM (inactive), respectively.

In the case of `CCOC(=O)/C(=C/NC(=S)Nc1c(CC)cccc1C(C)(C)C)C(=O)c1ccccc1`, the GI50 in the experiment with MOLT-4, with SW-620, with NCI-H226, in the experiment with SK-MEL-28, with NCI-H23 and in the experiment on A549 was > 100 µM (inactive) throughout. For the same compound, the GI50 with MDA-MB-231 is > 100 µM (inactive); with A498, > 100 µM (inactive); in the experiment with SNB-75, 29.3 µM (inactive); in the experiment with NCI-H522, > 100 µM (inactive); in the experiment with UACC-62 it was > 100 µM (inactive); with T47D it was > 100 µM (inactive). In addition, the GI50 in the experiment on RPMI-8226 is 88.9 µM (inactive); with OVCAR-4, > 100 µM (inactive); in the experiment on NCI/ADR-RES, > 100 µM (inactive); in the experiment with MDA-MB-435, > 100 µM (inactive); with HOP-62, > 100 µM (inactive); with LOX IMVI it was > 100 µM (inactive). For the same compound, the GI50 in the experiment with UACC-257 and in the experiment on OVCAR-8 was > 100 µM (inactive) in each case.

Take `COc1cc2c(cc1OCCCOc1cc3c(cc1OC)C(=O)N1CCC[C@H]1C(=O)N3)N=C[C@@H]1CCCN1C2=O`: the GI50 in the experiment on MOLT-4 is 0.206 µM (active); in the experiment on SW-620 it was 11 µM (inactive); in the experiment with NCI-H226 it was 14.6 µM (inactive); with SK-MEL-28, 21 µM (inactive); in the experiment with NCI-H23 it was 23.6 µM (inactive); with A549 it was 22.1 µM (inactive). Moreover, the GI50 was 14.9 µM (inactive) in the experiment on MDA-MB-231; 17.3 µM (inactive) with A498; 10.1 µM (inactive) in the experiment on SNB-75; 1.73 µM (inactive) in the experiment with NCI-H522; 6.62 µM (inactive) in the experiment on UACC-62; 7.94 µM (inactive) in the experiment with T47D. The GI50 is 6.46 µM (inactive) in the experiment on RPMI-8226; 18.5 µM (inactive) in the experiment with OVCAR-4; 76.7 µM (inactive) with NCI/ADR-RES; 15.8 µM (inactive) in the experiment with MDA-MB-435; 34.2 µM (inactive) in the experiment with HOP-62; 3.07 µM (inactive) in the experiment with LOX IMVI. For the same compound, the GI50 was 24.5 µM (inactive) with UACC-257 and 23.4 µM (inactive) with OVCAR-8.

`NCCN1CC2CCC(CC2)C1`: the GI50 with MOLT-4, in the experiment with SW-620, with NCI-H226, in the experiment on SK-MEL-28, in the experiment with NCI-H23 and in the experiment with A549 was > 10 µM (inactive) in each case. Moreover, the GI50 in the experiment on MDA-MB-231, with A498, with SNB-75, in the experiment with NCI-H522, in the experiment on UACC-62 and in the experiment with T47D was > 10 µM (inactive) each time. In addition, the GI50 with RPMI-8226, with OVCAR-4, in the experiment on NCI/ADR-RES, in the experiment with MDA-MB-435, in the experiment on HOP-62 and in the experiment with LOX IMVI was > 10 µM (inactive) throughout. The GI50 in the experiment with UACC-257 and in the experiment on OVCAR-8 was > 10 µM (inactive) throughout.

Regarding `O=[N+]([O-])c1ccc2c3ccccc3[s+]([O-])c2c1` (stereo not given), the GI50 with MOLT-4 is > 100 µM (inactive); in the experiment with SW-620, 72.4 µM (inactive); with NCI-H226, > 100 µM (inactive); in the experiment on SK-MEL-28, > 100 µM (inactive); in the experiment on NCI-H23, > 100 µM (inactive); in the experiment with A549, > 100 µM (inactive). The GI50 with MDA-MB-231, with A498, in the experiment with SNB-75, in the experiment on NCI-H522, with UACC-62 and in the experiment with T47D was > 100 µM (inactive) in each case. For the same compound, the GI50 in the experiment on RPMI-8226, in the experiment on OVCAR-4, in the experiment with NCI/ADR-RES, in the experiment with MDA-MB-435, with HOP-62 and with LOX IMVI was > 100 µM (inactive) in each case. The GI50 in the experiment with UACC-257 and in the experiment on OVCAR-8 was > 100 µM (inactive) throughout.

Consider `CCOC(=O)/C(=C\c1c(C)[nH]c2ccccc12)P(=O)(OCC)OCC`, for which the GI50 with MOLT-4, in the experiment with SW-620, with NCI-H226, with SK-MEL-28, in the experiment with NCI-H23 and in the experiment on A549 was > 100 µM (inactive) each time. The GI50 with MDA-MB-231, in the experiment on A498, with SNB-75, with NCI-H522, in the experiment with UACC-62 and in the experiment on T47D was > 100 µM (inactive) in each case. The GI50 with RPMI-8226, with OVCAR-4, with NCI/ADR-RES, with MDA-MB-435, in the experiment on HOP-62 and with LOX IMVI was > 100 µM (inactive) throughout. Also, the GI50 in the experiment on UACC-257 and in the experiment on OVCAR-8 was > 100 µM (inactive) throughout.

On to `Cc1cc(C)nc(NS(=O)(=O)c2ccc(Nc3c4ccccc4nc4ccc(C(=O)Nc5ccc(S(=O)(=O)N=C(N)N)cc5)cc34)cc2)n1`, for which the GI50 in the experiment with MOLT-4 is 32.3 µM (inactive); in the experiment with SW-620, 48.4 µM (inactive); in the experiment on NCI-H226 it was > 100 µM (inactive); in the experiment on SK-MEL-28, > 100 µM (inactive); in the experiment with NCI-H23, > 100 µM (inactive); with A549, > 100 µM (inactive). The GI50 was 81.8 µM (inactive) in the experiment with MDA-MB-231; > 100 µM (inactive) with A498; > 100 µM (inactive) with SNB-75; 65.8 µM (inactive) in the experiment on NCI-H522; > 100 µM (inactive) in the experiment on UACC-62; 38.2 µM (inactive) in the experiment on T47D. Also, the GI50 is 35.7 µM (inactive) in the experiment with RPMI-8226; 55.3 µM (inactive) in the experiment with OVCAR-4; > 100 µM (inactive) with NCI/ADR-RES; 48.4 µM (inactive) in the experiment on MDA-MB-435; > 100 µM (inactive) with HOP-62; 17 µM (inactive) in the experiment on LOX IMVI. Further, the GI50 in the experiment on UACC-257 is 72.3 µM (inactive); with OVCAR-8, > 100 µM (inactive).
